Reference: patent publication US20250387359A1, “COMPOUNDS AND METHODS FOR THE TREATMENT OF PARASITIC INFECTIONS” (THE BOARD OF TRUSTEES OF THE UNIVERSITY OF ILLINOIS, priority 2019, published 2025)
Like-named read-outs stand apart in the source and are kept apart here.

Tests used:
[1] = Compound cytotoxicity assay (WST-1) in HCT-8 cells; type: cell-based, human; settings: human; HCT-8 cells, 24 h, WST-1
Procedure: Compound cytotoxicity assay. […] A colorimetric assay using the cell proliferation reagent WST-1 (Roche, USA) for the quantification of cell viability was performed. […] When the cells were confluent, the old medium was replaced with fresh medium with or without varying concentrations of chemical compound. After 24 h of culture, 10 μl of the cell proliferation reagent WST-1, (for quantification of cell viability) was added to each well, mixed and the plates incubated for 1 h at 37 C with 5% CO2 in the dark. […] Molecular Devices, USA).

Cryptosporidium parvum = experiment: In vitro anti-Cryptosporidium effect in HCT-8 cells (immunofluorescence assay); type: cell-based; settings: for IC50: Cryptosporidium parvum, HCT-8 cells
Procedure: In vitro testing of the anti-Cryptosporidium effect of CpLDH inhibitors. HCT-8 cells were cultured in supplemented RPMI-1640 medium in 96-well plates. When the cells were confluent, old medium was replaced with fresh medium. To one set of wells, varying concentrations of recombinant CpLDH inhibitors (reconstituted in DMSO and diluted in RPMI medium) were added, while another set was left without inhibitors. Paromomycin was used as a positive control drug reconstituted in distilled sterile water. Then, 4×10^4 freshly excysted sporozoites were added to each well and incubated at 37° C. with 5% CO2. After 2 h incubation, varying concentrations of CpLDH inhibitors were added to the set of infected cells that were not treated initially. Control infected cells without inhibitors, but with added DMSO volumes equivalent to those used in the wells with inhibitors, were included. The cells were maintained in culture for a total of either 48 h or 72 h and processed for immunofluorescence assay as previously described (Int. J. Parasitol. 2017; 47(13), 867-874). Briefly, medium was decanted, and the cells fixed with methanol-acetic acid (9:1) for 2 minutes at room temperature. The cells were rehydrated and permeabilized by two successive washes with buffer (0.1% Triton X-100, 0.35 M NaCl, 0.13 M Tris-base, pH 7.6) and blocked with 5% normal goat serum, followed by staining with antibody to C. parvum (SporoGlo; Waterborn, Inc.) overnight at 4° C. The stained cells were washed twice with PBS, followed by water, and then imaged with an inverted fluorescence microscope. Fluorescence quantification was done using ImageJ version 1.37v software (NIH). Assays were performed in triplicate and repeated at least thrice.

C. parvum = experiment: Real-time PCR quantification of C. parvum DNA in fecal samples of infected mice; type: in vivo, Cryptosporidium parvum; settings: for fecal C. parvum DNA load: Table 6, infected mice, multiplier printed in next cell
Procedure: In vivo testing of the anti-Cryptosporidium effect of CpLDH inhibitors. Gamma interferon knockout mice (B6.129S7-Ifng), 8 weeks of age, were purchased from Charles River, USA. The care and use of the mice was done following the guidelines of protocol number 17024 approved by the University of Illinois at Urbana-Champaign, USA. The animals were allowed to acclimatize for 1 week before experiments commenced. Stock solutions of recombinant CpLDH inhibitors reconstituted in DMSO were diluted in sterile distilled water to reduce the final amount of DMSO in the solution to less than 1% (v/v) before administering them to mice. Prior to testing the anti-Cryptosporidium effect of the inhibitors in mice, the tolerability of each inhibitor was tested by oral gavage using varying dosages (100-2000 mg/kg body weight) of each inhibitor in groups of mice (three mice for each dose) daily for 7 days. Mice were observed daily for signs of toxicity including changes from normal physical activity, respiration, body temperature, feeding, posture, fur condition or occurrence of death. […] The subsequent dosages of NSC10447 used in the mice infection assays were 250, 500 and 1000 mg/kg mouse body weight, while the NSC158011 dosages used were 100, 200 and 400 mg/kg mouse body weight. Mice were allocated to groups as follows: “Infected plus inhibitor treatment”; “Infected minus inhibitor treatment”; “Uninfected minus inhibitor treatment” and “Infected plus paromomycin treatment”. Each group contained at least three mice. Each mouse in the infection groups received 5,000 C. parvum oocysts (resuspended in 50 μl of PBS) by oral gavage. Mice were housed individually in cages lined with sterile gauze as bedding. One day post-infection (PI), daily oral gavage administration of recombinant CpLDH inhibitor or paromomycin commenced and continued for a total of 7 days. Untreated mice received an equivalent volume of sterile distilled water (containing DMSO equivalent to the amount administered in the inhibitor-treated group) by oral gavage. Fecal pellets were collected daily from each cage and placed in individual sterile 15 ml conical tubes. An equivalent volume of PBS containing a cocktail of penicillin (100 units/ml), streptomycin (100 μg/ml), chloramphenicol (34 μg/ml) and amphotericin (0.25 μg/ml) was added to the fecal samples and stored at 4° C. until use for quantification of C. parvum genomic DNA load. Three independent replicate infection assays were performed. At 9 days PI, mice were euthanized and 5 cm of the distal small intestine resected 2 cm anterior to the cecum and immediately submerged in 4% buffered formalin. The intestinal tissues were submitted for histopathology to the Veterinary Diagnostic Laboratory at the University of Illinois at Urbana-Champaign. Briefly, intestinal tissues preserved in 4% buffered formalin were washed in 70% ethanol and embedded in 1% agar and then processed for paraffin embedding. For hematoxylin and eosin staining, five μm transverse and cross sections were cut and processed and stained following standard procedures of the Veterinary Diagnostic Laboratory. Sections were imaged using a Zeiss microscope and images captured with a color camera.
Quantification of C. parvum shed in mice feces. Genomic DNA was extracted from individual fecal samples collected from mice at different days as described above. For each sample, 220 mg of homogenized feces were used to extract genomic DNA using the QIAamp PowerFecal DNA Kit (Qiagen, USA) following the manufacturer's instructions. Quantification of the amount of C. parvum 18s rRNA gene (GenBank accession number AF164102) was performed essentially as described previously (Int. J. Parasitol. 2018; 48(8), 649-656). Briefly, primers were used to generate a 240 bp amplicon from C. parvum genomic DNA by conventional PCR. […]

O=C1c2ccccc2C(=O)c2c(O)c(O)cc(O)c21 [NSC10447]
IC50 at 24 h [1]: 290 µM | effect on C. parvum proliferation in initial screen (Cryptosporidium parvum; 48 h post-infection, concentrations at least 50% lower than cytotoxicity IC50): significantly (P<0.05) inhibit C. parvum proliferation | IC50 (Cryptosporidium parvum; 48 h, compound added at the time of infection, read-out: IC50, inhibition of C. parvum growth at 48 h p.i.): 72.7 µM | IC50 (Cryptosporidium parvum; 72 h, compound added at the time of infection, read-out: IC50, inhibition of C. parvum growth at 72 h p.i.): 83.6 µM | IC50 (Cryptosporidium parvum; compound added 2 h post-infection, read-out: IC50, inhibition of C. parvum growth at 48 h p.i. (2 h)): 79.5 µM | IC50 (Cryptosporidium parvum; compound added 2 h post-infection, read-out: IC50, inhibition of C. parvum growth at 72 h p.i. (2 h)): 95.2 µM | lower C. parvum DNA load in feces compared to infected untreated (C. parvum; NSC10447 at 250, 500 and 1000 mg/kg, day 3 until day 8): at least 50% | fecal C. parvum DNA load (C. parvum; NSC10447 250 mg/kg, DPI 1): 4.4 ± 0.5 ×10^−10 ng/μL | fecal C. parvum DNA load (C. parvum; NSC10447 250 mg/kg, DPI 2): 7.3 ± 0.2 ×10^−10 ng/μL | fecal C. parvum DNA load (C. parvum; NSC10447 250 mg/kg, DPI 3): 1.0 ± 0.1 ×10^−8 ng/μL | fecal C. parvum DNA load (C. parvum; NSC10447 250 mg/kg, DPI 4): 1.2 ± 0.1 ×10^−7 ng/μL | fecal C. parvum DNA load (C. parvum; NSC10447 250 mg/kg, DPI 5): 1.2 ± 0.1 ×10^−6 ng/μL | fecal C. parvum DNA load (C. parvum; NSC10447 250 mg/kg, DPI 6): 4.8 ± 0.2 ×10^−6 ng/μL | fecal C. parvum DNA load (C. parvum; NSC10447 250 mg/kg, DPI 7): 1.9 ± 0.2 ×10^−5 ng/μL | fecal C. parvum DNA load (C. parvum; NSC10447 250 mg/kg, DPI 8): 4.7 ± 0.1 ×10^−5 ng/μL | fecal C. parvum DNA load (C. parvum; NSC10447 500 mg/kg, DPI 1): 1.0 ± 0.5 ×10^−10 ng/μL | fecal C. parvum DNA load (C. parvum; NSC10447 500 mg/kg, DPI 2): 9.4 ± 0.2 ×10^−10 ng/μL | fecal C. parvum DNA load (C. parvum; NSC10447 500 mg/kg, DPI 3): 6.7 ± 0.6 ×10^−9 ng/μL | fecal C. parvum DNA load (C. parvum; NSC10447 500 mg/kg, DPI 4): 1.4 ± 0.1 ×10^−7 ng/μL | fecal C. parvum DNA load (C. parvum; NSC10447 500 mg/kg, DPI 5): 1.6 ± 0.1 ×10^−6 ng/μL | fecal C. parvum DNA load (C. parvum; NSC10447 500 mg/kg, DPI 6): 5.9 ± 0.4 ×10^−6 ng/μL | fecal C. parvum DNA load (C. parvum; NSC10447 500 mg/kg, DPI 7): 9.3 ± 0.2 ×10^−6 ng/μL | fecal C. parvum DNA load (C. parvum; NSC10447 500 mg/kg, DPI 8): 3.0 ± 0.4 ×10^−5 ng/μL | fecal C. parvum DNA load (C. parvum; NSC10447 1000 mg/kg, DPI 1): 1.2 ± 0.2 ×10^−9 ng/μL | fecal C. parvum DNA load (C. parvum; NSC10447 1000 mg/kg, DPI 2): 3.0 ± 0.7 ×10^−9 ng/μL | fecal C. parvum DNA load (C. parvum; NSC10447 1000 mg/kg, DPI 3): 6.4 ± 0.2 ×10^−9 ng/μL | fecal C. parvum DNA load (C. parvum; NSC10447 1000 mg/kg, DPI 4): 1.1 ± 0.1 ×10^−7 ng/μL | fecal C. parvum DNA load (C. parvum; NSC10447 1000 mg/kg, DPI 5): 1.3 ± 0.1 ×10^−6 ng/μL | fecal C. parvum DNA load (C. parvum; NSC10447 1000 mg/kg, DPI 6): 5.6 ± 0.4 ×10^−6 ng/μL | fecal C. parvum DNA load (C. parvum; NSC10447 1000 mg/kg, DPI 7): 6.3 ± 0.4 ×10^−6 ng/μL | fecal C. parvum DNA load (C. parvum; NSC10447 1000 mg/kg, DPI 8): 1.2 ± 0.8 ×10^−6 ng/μL
